Data published in patent US10568918B2, “Composition comprising chlorella extract for preventing or treating liver disease” (GANGNEUNG-WONGJU NATIONAL UNIVERSITY INDUSTRY ACADEMY …, priority 2011, dated 2020).
“And” between values parts separate entries of the source, which are not always exact repeats. Equal values may be shown once.

Columns and labels:
[1] = system: liver injury-induced animal models; assay: SOD, CAT, GPx, ADH and ALDH activities in liver cytosol of ethanol liver-injured animal model; assay type: in vivo, SD rats; details: 10 mg/kg in feed, 10 days
Method: After inspection and adaptation for 1 week, healthy animals without weight loss were selected and used for the test. Test animals were bred under a condition of temperature: 23±3, relative humidity: 50±10%, air change rate: 10-15 times/hour, lighting time: 12 hours (08:00-20:00) and luminous intensity: 150-300 Lux. During adaptation period of 1 week, the test animals were freely fed with solid feed for test animal (Superfeed Co., Ltd., Wonju, South Korea) and drinking water. After the adaptation period of 1 week, healthy animals were selected, and divided to 5 groups by randomized block design. […] Test feeds were prepared by mixing each test compounds to the feed to the daily feeding amount of 50 or 100 mg per 1 kg of test animal weight as described above, and fed. […] The feed intake was measured every two days, and body weight was measured every week from the day of starting the oral administration of ethanol (0 day) to the final day of the experiment.
1 g liver tissue was homogenized with 0.25 M sucrose (pH 7.0). […] The activities of superoxide dismutase (SOD), catalase (CAT) and glutathione peroxidase (GPx) were measured using a kit of Cayman chemical company (Ann Arbor, Mich., USA). The activity of alcohol dehydrogenase (ADH) was measured by adding 0.2 M ethanol 10 μl, 0.05 M semicarbazide HCl 10 μl and 0.1 M NAD (in 0.01 M HCl) 10 μl to 0.1 M Tris-HCl buffer (pH 8.5) 160 μl followed by adding the cytosolic zymogen 10 μl thereto at 340 nm. […] The activity of acetaldehyde dehydrogenase (ALDH) was measured by adding 1 M KCl 10 μl, 0.1 M pyrazole 10 μl, 1 M 2-mercaptoethanol 10 μl, 0.1 M propione aldehyde 10 μl and 0.1 M NAD (in 0.01 M HCl) 10 μl to 0.2 M Tris-HCl buffer (pH 8.3) 150 μl followed by adding the cytosolic zymogen 10 μl at 340 nm, and the enzyme protein assay was conducted by a method of Lowry et al. (Lowry O H et al., 1957, J Biol Chem 193: 265-276).

[2] = system: liver injury-induced animal models; assay: Content of lipid peroxide in liver microsome of ethanol liver-injured animal model; assay type: in vivo, SD rats; details: EtOH +, 10 mg/kg, mean ± SEM
Method: 1 g Liver tissue was homogenized in 0.25 M sucrose (pH 7.0). […] The content of the lipid peroxide was measured by a lipid peroxide measuring kit (BioAssay Systems, Hayward, Calif., USA), and the protein quantification was conducted by a method of Lowry et al. (Lowry O H et al., 1957, J Biol Chem 193: 265-276).

[3] = system: quinone reductase; assay: Quinone reductase activity induction in Hepa1c1c7 liver cancer cells; assay type: cell-based, white rat; details: sulforaphane at 5 μM, 5 × 10^3 cell/wells
Method: For the ethanol extract and the ingredients of the isolated fractions, the quinone reductase activity induction was analyzed. In order to measure the quinone reductase activity induction effect of the fractions obtained from the chlorella, the experiment was conducted using a liver cancer cell line (Hepa1c1c7) of a white rat.
First of all, a-MEM (minimum essential medium)/10% FBS (fetal bovine serum) solution was mixed with a liver cell culture solution to make the cell number of 1×10^5 cells/Ml, and the resulting solution 100 μl was added to a 96-well plate followed by incubating for 24 hours under a condition of 5% CO2 and 37° C. […]
The protein solution 50 μl and reaction solution A (49 Ml 25 mM Tris buffer, 34 mg BSA, 0.34 Ml 1.5% tween-20 solution, 0.34 Ml co-enzyme solution, 100 unit glucose-6-phosphate dehydrogenase, 15 mg MTT, 50 μl 50 mM menadione) 200 μl were mixed together, and the absorbance increasing rate was measure at 610 nm using a microplate reader. The protein amount was measured at 595 nm using Bradford solution. […] The quinone reductase activity of the extract and the fraction was expressed as CD (the concentration of the sample where the quinone reductase activity of the sample-treated cell becomes twice).

[4] = system: liver injury-induced animal models; assay: Contents of triglyceride, total cholesterol and HDL-cholesterol in blood serum of ethanol liver-injured animal model; assay type: in vivo, SD rats; details: EtOH +, 10 mg/kg, mean ± SEM
Method: The chlorella ethanol extract (CH) was used. The CH was dissolved in ethanol, and mixed with AlN-76 diet to be a daily intake of 50 mg or 100 mg per kg of a test animal weight and supplied to the animal. Specific pathogen free male SD rats of 5-week-old were purchased from Orient Bio Inc. (Seongnam, South Korea). After inspection and adaptation for 1 week, healthy animals without weight loss were selected and used for the test. Test animals were bred under a condition of temperature: 23±3, relative humidity: 50±10%, air change rate: 10-15 times/hour, lighting time: 12 hours (08:00-20:00) and luminous intensity: 150-300 Lux. During adaptation period of 1 week, the test animals were freely fed with solid feed for test animal (Superfeed Co., Ltd., Wonju, South Korea) and drinking water. After the adaptation period of 1 week, healthy animals were selected, and divided to 5 groups by randomized block design. Namely, those were divided into a control group not treated with ethanol and the test material, a group orally administered with ethanol, a group orally administered with ethanol and fed with CH 50 mg/kg, a group orally administered with ethanol and fed with CH 100 mg/kg and a group orally administered with ethanol and fed with sulforaphane 10 mg/kg. The primary feed used in this experiment, AlN-76 was purchased from Research Diets, Inc. (New Brunswick, N.J., USA), and its composition is listed in Table 1. Test feeds were prepared by mixing each test compounds to the feed to the daily feeding amount of 50 or 100 mg per 1 kg of test animal weight as described above, and fed. […] The feeds containing the test compounds were fed for 10 days after 17th day of the ethanol administration, and the ethanol was orally administered together with the feed continuously. During the test period, drinking water was freely supplied. The feed intake was measured every two days, and body weight was measured every week from the day of starting the oral administration of ethanol (0 day) to the final day of the experiment. […]

[5] = system: liver injury-induced animal models; assay: ALT, AST, γ-GT and LDH contents in blood serum of ethanol liver-injured animal model; assay type: in vivo, SD rats; details: 10 mg/kg in feed, 10 days
Method: The chlorella ethanol extract (CH) was used. The CH was dissolved in ethanol, and mixed with AlN-76 diet to be a daily intake of 50 mg or 100 mg per kg of a test animal weight and supplied to the animal. Specific pathogen free male SD rats of 5-week-old were purchased from Orient Bio Inc. (Seongnam, South Korea). After inspection and adaptation for 1 week, healthy animals without weight loss were selected and used for the test. Test animals were bred under a condition of temperature: 23±3, relative humidity: 50±10%, air change rate: 10-15 times/hour, lighting time: 12 hours (08:00-20:00) and luminous intensity: 150-300 Lux. During adaptation period of 1 week, the test animals were freely fed with solid feed for test animal (Superfeed Co., Ltd., Wonju, South Korea) and drinking water. […] The feed intake was measured every two days, and body weight was measured every week from the day of starting the oral administration of ethanol (0 day) to the final day of the experiment. […] To analyze contents of ALT, AST, γ-GT and LDH in a blood serum isolated from the blood collected on the day of the autopsy, alanine aminotransferase (ALT), aspartate aminotransferase (AST), gamma-glutamyl transferase (γ-GT) and lactic dehydrogenase (LDH) were analyzed using a blood biochemistry analyzer (KoneLab 20, Thermo Fisher Scientific, Waltham, […]).

[6] = system: liver injury-induced animal models; assay: Contents of total lipid, triglyceride and total cholesterol in liver tissue of ethanol liver-injured animal model; assay type: in vivo, SD rats; details: 10 mg/kg
Method: Specific pathogen free male SD rats of 5-week-old were purchased from Orient Bio Inc. (Seongnam, South Korea). After inspection and adaptation for 1 week, healthy animals without weight loss were selected and used for the test. Test animals were bred under a condition of temperature: 23±3, relative humidity: 50±10%, air change rate: 10-15 times/hour, lighting time: 12 hours (08:00-20:00) and luminous intensity: 150-300 Lux. During adaptation period of 1 week, the test animals were freely fed with solid feed for test animal (Superfeed Co., Ltd., Wonju, South Korea) and drinking water. After the adaptation period of 1 week, healthy animals were selected, and divided to 5 groups by randomized block design. […] Test feeds were prepared by mixing each test compounds to the feed to the daily feeding amount of 50 or 100 mg per 1 kg of test animal weight as described above, and fed. In order to induce the fatty liver by ethanol, 20% ethyl alcohol 5 g per kg (body weight) was orally administered twice a day (morning and afternoon) for 16 days. The feeds containing the test compounds were fed for 10 days after 17th day of the ethanol administration, and the ethanol was orally administered together with the feed continuously. During the test period, drinking water was freely supplied. The feed intake was measured every two days, and body weight was measured every week from the day of starting the oral administration of ethanol (0 day) to the final day of the experiment.
Total lipid content in the liver tissue was analyzed by homogenizing 1 g liver tissue in a saline 3 ml followed by homogenizing again with CM solution (Chloroform:Methanol=2:1) 9 ml. The homogenate was centrifuged at 3,000 rpm for 10 min, and the lower layer was collected and evaporated followed by measuring the total lipid content using a precision scale. The measured total lipid was dissolved in isopropanol, and the triglyceride content and the total choresterol content were measured by a quantitative analysis kit using an enzyme method (Asan Pharm. Co., Ltd., Hwaseong, South Korea).

[7] = did not show the significant difference

With `C[S+]([O-])CCCCN=C=S` (centres unmarked) [Sulforaphane] the “liver cytosol SOD activity vs ethanol administration group” value [1] was “increased”, the “liver cytosol CAT activity vs ethanol administration group” value [1, 7] was “increased” and the “liver cytosol GPx activity vs group orally administered with ethanol” value [1, 7] was “increased”. For the same compound, the “Lipid peroxide (μM/mg protein)” value [2] was 2.07 μM/mg protein, the “CD (concentration of the sample where the quinone reductase activity of the sample-treated cell becomes twice)” value [3] was 1.94 µg/mL and 2.48 µg/mL and 2.07 µg/mL and the “HDL-cholesterol” value [4] was 33.39 mg/dL. The “Total cholesterol” value [4] was 94.25 mg/dL, the “Triglyceride” value [4] was 126.11 mg/dL and the “serum γ-GT vs group orally administered with ethanol only” value [5] was “did not show the significant difference”. The “serum LDH content vs group orally administered with ethanol” value ([5]; with the significant difference) was “decreased”, the “total liver cholesterol contents vs group orally administered with ethanol” value ([6]; showed the significant difference) was “decreased” and the “Total cholesterol (mg/g liver)” value ([6]; EtOH +, mean ± SEM) was 4.39 mg/g liver. For the same compound, the “Total lipid (mg/g liver)” value ([6]; EtOH +, mean ± SEM) was 48.26 mg/g liver and the “Triglyceride (mg/g liver)” value ([6]; EtOH +, mean ± SEM) was 13.28 mg/g liver.
